The text below walks through data of PMC10575874, “Structural insights into the allosteric inhibition of P2X4 receptors” (Nature Communications, 2023).

The target in data set [1] is T1, zebrafish P2X4 receptor (zfP2X4) (Danio rerio, UniProt F8W463).
T1 construct: gene p2rx4a; residues 9-382 (GenBank AAH66495.1), trimer in PMAL-C8 amphipol
T1 sequence (F8W463 9-382): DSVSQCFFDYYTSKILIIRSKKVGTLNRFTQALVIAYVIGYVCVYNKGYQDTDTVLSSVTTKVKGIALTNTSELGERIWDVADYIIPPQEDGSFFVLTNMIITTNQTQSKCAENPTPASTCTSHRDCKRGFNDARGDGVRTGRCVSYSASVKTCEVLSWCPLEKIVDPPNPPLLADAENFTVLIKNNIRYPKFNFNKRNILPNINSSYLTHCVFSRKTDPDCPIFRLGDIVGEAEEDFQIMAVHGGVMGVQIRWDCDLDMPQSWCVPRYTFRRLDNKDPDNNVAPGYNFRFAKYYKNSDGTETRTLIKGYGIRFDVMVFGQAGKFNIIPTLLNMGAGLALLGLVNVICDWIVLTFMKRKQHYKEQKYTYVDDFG
Kind of data set: cryo-EM structure ([…] Å); whole-cell patch clamp in HEK293 cells. A general note: The patch-clamp technique gives a direct electrical read-out from membranes.

Data set [2] has as its target T2, human P2X3 receptor, P2X4-like gain-of-function mutant (Homo sapiens, UniProt P56373, M75W/T82I/V98I).
T2 construct: gene P2RX3
T2 sequence (P56373 1-397 M75W/T82I/V98I): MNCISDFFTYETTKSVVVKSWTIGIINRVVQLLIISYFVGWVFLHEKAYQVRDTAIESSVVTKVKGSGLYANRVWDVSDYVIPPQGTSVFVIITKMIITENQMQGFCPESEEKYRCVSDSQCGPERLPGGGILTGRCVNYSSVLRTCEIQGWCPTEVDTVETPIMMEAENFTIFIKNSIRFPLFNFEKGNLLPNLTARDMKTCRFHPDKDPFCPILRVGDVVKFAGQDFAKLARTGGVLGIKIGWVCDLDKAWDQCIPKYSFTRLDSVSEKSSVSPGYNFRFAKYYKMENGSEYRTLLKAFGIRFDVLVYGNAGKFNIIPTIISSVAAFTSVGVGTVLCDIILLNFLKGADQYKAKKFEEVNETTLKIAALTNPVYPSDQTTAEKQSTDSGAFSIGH
Kind of data set: patch clamp of ATP-evoked currents in HEK293 cells at […] BX430. It counts as cell-based.

Data set [3] deals with the molecule itself. Kind of data set: cryo-EM structure; purified zfP2X4 in PMAL-C8 amphipol, incubated with 50 uM BX430 or 125 uM BAY-1797 for 1 h; C3 symmetry imposed, also processed with C1 symmetry.

For `CC(C)c1cc(Br)c(NC(=O)Nc2cccnc2)c(Br)c1` [BX430, 1-(2,6-dibromo-4-isopropylphenyl)-3-(3-pyridyl)urea], in data set [1], the IC50 result was “BX430-bound zfP2X4 (EMD-36668) (PDB 8JV5)”. Besides, the “patch clamp of ATP-evoked currents in HEK293 cells at 30 and 100 μM BX430” value in data set [2] is “the P2X4-like mutant of human P2X3 (M75W/T82I/V98I) conferred sensitivity to BX430”.

B1: zebrafish P2X4 receptor (residues 9-382) (receptor, UniProt F8W463 9-382, looked up)
chain: T1 sequence (F8W463 9-382)
notes: P2X4 receptor, zebrafish (Danio rerio), GenBank AAH66495.1, residues 9-382 (truncation of the N-terminal 8 and the C-terminal 7 residues); Homotrimer; A C-terminal HRV 3C site stood before TGP and the Twin-Strep-tag; residues of the site may remain after cleavage; also called zfP2X4; source: Sf9 (baculovirus), purified (Strep-Tactin, HRV 3C cleavage, SEC), reconstituted into PMAL-C8 amphipol; not …
In the case of B1, the “stoichiometry N” value in data set [3] worked out at 3.

For orientation: stoichiometry N means a count of units in the complex or per binding partner.
